The values that follow come from patent US20230399319A1, “Acylsulfamide Compound and Pharmaceutical Use Therefor” (Japan Tobacco Inc., priority 2019, published 2023).

Read-outs that look alike come from different tables or passages of the source. Bounds are passed on as bounds.

Test [1] deals with MOG35-55EAE model mice. The note with it: administration after the onset; cited from earlier work.
For test [2], the system named is intra-articular urate-injected arthritis model. Particulars: cited from earlier work.
Test [3] addresses NLRP3 inflammasome (Homo sapiens (Human), UniProt Q96P20). Kind of test: Evaluation of NLRP3 inflammasome inhibitory activity (inhibition of IL-1β production in THP1-Null cells, LPS/Nigericin).
The subject of test [4] is Mice expressing CAPS-related NLRP3 mutations. The note with it: strain expressing CAPS-related NLRP3 mutations; cited from earlier work.
The mark [5] stands for this setting: inhibition of IL-1β production in THP1-Null cells.
Setting [6] is: IL-1β production in THP1-Null cells, PMA/LPS primed, Nigericin 7.5 μmol/L.

NLRP3 inflammasome, sequence (Q96P20 whole entry): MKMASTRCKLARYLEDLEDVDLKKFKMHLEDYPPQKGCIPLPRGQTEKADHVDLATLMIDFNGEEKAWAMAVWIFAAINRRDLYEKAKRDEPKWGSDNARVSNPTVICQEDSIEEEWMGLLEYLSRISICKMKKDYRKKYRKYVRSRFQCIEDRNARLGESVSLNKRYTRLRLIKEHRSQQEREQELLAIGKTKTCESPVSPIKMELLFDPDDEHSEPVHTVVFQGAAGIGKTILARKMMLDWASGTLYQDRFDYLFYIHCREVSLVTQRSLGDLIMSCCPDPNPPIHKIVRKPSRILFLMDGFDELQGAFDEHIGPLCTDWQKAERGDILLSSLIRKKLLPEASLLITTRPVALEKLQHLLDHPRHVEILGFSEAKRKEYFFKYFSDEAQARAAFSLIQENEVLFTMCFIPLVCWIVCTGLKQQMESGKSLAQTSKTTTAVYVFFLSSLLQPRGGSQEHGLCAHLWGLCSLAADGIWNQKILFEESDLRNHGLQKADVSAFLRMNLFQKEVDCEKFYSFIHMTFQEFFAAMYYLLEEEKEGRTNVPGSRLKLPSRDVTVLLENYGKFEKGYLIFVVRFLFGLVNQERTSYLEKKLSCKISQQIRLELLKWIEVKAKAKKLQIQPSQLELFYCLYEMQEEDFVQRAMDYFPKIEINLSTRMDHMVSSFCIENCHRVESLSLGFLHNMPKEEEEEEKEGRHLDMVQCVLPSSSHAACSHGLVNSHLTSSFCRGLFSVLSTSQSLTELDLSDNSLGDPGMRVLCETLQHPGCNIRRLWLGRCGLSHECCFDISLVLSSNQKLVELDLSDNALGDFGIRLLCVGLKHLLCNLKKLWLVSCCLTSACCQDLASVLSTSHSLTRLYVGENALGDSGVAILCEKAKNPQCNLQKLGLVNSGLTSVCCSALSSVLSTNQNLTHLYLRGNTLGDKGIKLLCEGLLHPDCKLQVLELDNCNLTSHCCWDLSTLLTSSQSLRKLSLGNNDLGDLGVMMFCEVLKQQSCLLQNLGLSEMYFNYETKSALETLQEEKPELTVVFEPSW

With `COc1ccc(Cl)cc1C(=O)NCCc1ccc(S(=O)(=O)NO)cc1` [JC-171, 5-Chloro-N-[2-(4-hydroxysulfamoyl-phenyl)-ethyl]-2-methoxy-benzamide], the “impairment of motor function” value in test [1] is reported as “inhibited the impairment of motor function”. Consider `CS(=O)(=O)CCC#N` [OLT1177], for which, in test [2], the arthritis entry was “suppressed arthritis”. For the compound `Cc1ccc(C(F)(F)F)cc1Nc1nc(C(=O)NS(=O)(=O)N2CCCN(S(=O)(=O)N(C)C)CC2)co1` [Example 2-099], the IC50 in test [3] (setting [5]) was 21 nM. The compound `Cc1ccc2c(c1Nc1nc(C(=O)NS(=O)(=O)N3CCC(O)C3)co1)CCC2` (racemic) [Example 30] gave an IC50 in test [3] of 190 nM. In test [3] (setting [5]), `CC(C)n1cc(Nc2nc(C(=O)NS(=O)(=O)N3CCCOCC3)co2)c(C2CC2)n1` [Example 2-195] registered an IC50 of 1400 nM. The compound `COC1COCCN(S(=O)(=O)NC(=O)c2coc(Nc3cc(C(F)(F)F)ccc3C)n2)C1` (racemic) [Example 2-076] had an IC50 in test [3] of 25 nM. With `COCC1CCN(S(=O)(=O)NC(=O)c2coc(Nc3cc(C(F)F)ccc3C)n2)CCO1` (stereo not shown) [Example 2-327], the concentration for half-maximal inhibition (IC50) in test [3] (setting [5]) amounted to 29 nM. As to `Cc1ccc(C(C)C)cc1Nc1nc(C(=O)NS(=O)(=O)N2CCOCC2)cs1` [Example 2-055], the IC50 in test [3] (setting [5]) was under 30 nM.

`CC(C)c1ccc2c(c1Nc1nc(C(=O)NS(=O)(=O)N(C)C)co1)CCC2` [Example 2-118] registered an IC50 in test [3] (setting [5]) of 260 nM. Turning to `O=C(O)c1ccc(/C=C2/SC(=S)N(Cc3cccc(C(F)(F)F)c3)C2=O)cc1` [CY-09], in test [4], the survival result is given as “improved the survival” and the systemic lethal inflammation result was “suppressed systemic lethal inflammation”. In test [3] (setting [6]), `Cc1ccc(C(F)(F)F)cc1Nc1nc(C(=O)NS(=O)(=O)N2CC3CCC(C2)O3)co1` [Example 77] showed an IC50 of 56 nM.

For the compound `Cc1ccc(C(F)(F)F)cc1Nc1nc(C(=O)NS(=O)(=O)N2CCCC(C(=O)N(C)C)CC2)co1` (racemic) [Example 2-157], 38 nM corresponded to half-maximal inhibition in test [3] (IC50). On to `COC1CCN(S(=O)(=O)NC(=O)c2coc(Nc3cc(C(F)(F)F)ccc3C)n2)CC1` [Example 2-158], for which the IC50 in test [3] (setting [5]) is 100 nM. For the compound `Cc1ccc(C(C)C)cc1Nc1nc(C(=O)NS(=O)(=O)N2CCOCC2C)co1` (racemic) [Example 2-081], half-maximal inhibition in test [3] (IC50) required 94 nM. Regarding `Cc1ccc(C(C)C)cc1Nc1nc(C(=O)NS(=O)(=O)N2CCOC(COC(F)F)CC2)co1` (stereo not shown) [Example 2-326], in test [3] (setting [5]), inhibition was half-maximal at 26 nM (IC50). For the compound `CN(C)S(=O)(=O)C1CCN(S(=O)(=O)NC(=O)c2coc(Nc3c4c(c(F)c5c3CCC5)CCC4)n2)CC1` [Example 66], the IC50 in test [3] (setting [6]) is under 30 nM. `COC(=O)CC1COCCN1S(=O)(=O)NC(=O)c1coc(Nc2c3c(c(Cl)c4c2CCC4)CCC3)n1` (racemic) [Example 73] displayed an IC50 in test [3] of 160 nM. The compound `COCC1CCN(S(=O)(=O)NC(=O)c2coc(Nc3cc(C(C)C)ccc3C)n2)CCO1` (stereo not shown) [Example 2-295] returned an IC50 in test [3] (setting [5]) of 30 nM. In the case of `CCCC(=O)N1CCCN(S(=O)(=O)NC(=O)c2coc(Nc3cc(C(F)(F)F)ccc3C)n2)CC1` [Example 2-215], the IC50 in test [3] (setting [5]) stood at 61 nM. For `CCCN1CCN(S(=O)(=O)NC(=O)c2coc(Nc3cc(C(F)(F)F)ccc3C)n2)CCC1=O` [Example 2-320], half-maximal inhibition in test [3] (IC50) was put at 600 nM. Regarding `CCCCS(=O)(=O)N1CCCN(S(=O)(=O)NC(=O)c2coc(Nc3nn(C(C)C)cc3C(C)C)n2)CC1` [Example 2-177], the half-maximal inhibitory concentration (IC50) in test [3] (setting [5]) came to 47 nM. In test [3], `COC1COCCN(S(=O)(=O)NC(=O)c2coc(Nc3cc(C(C)(F)F)ccc3C)n2)C1` (racemic) [Example 2-185] came in with an IC50 of 38 nM. In test [3] (setting [5]), `CCCS(=O)(=O)N1CCCN(S(=O)(=O)NC(=O)c2coc(Nc3cccc4ocnc34)n2)CC1` [Example 2-271] returned an IC50 of 940 nM. In test [3] (setting [6]), `CN(C)S(=O)(=O)NC(=O)c1coc(Nc2c3c(c(F)c4c2CCC4)CCC3)n1` [Example 27] yielded an IC50 of 58 nM. `Cc1ccc(C(F)(F)F)cc1Nc1nc(C(=O)NS(=O)(=O)N2CCN(S(=O)(=O)CCCF)CC(F)C2)co1` (racemic) [Example 2-198] showed an IC50 in test [3] of 29 nM. In test [3] (setting [5]), `Cc1ccc(C(C)C)c(Nc2nc(C(=O)NS(=O)(=O)N3CCCOCC3)co2)c1` [Example 2-308] yielded an IC50 of 82 nM.

`CS(=O)(=O)C1CCN(S(=O)(=O)NC(=O)c2coc(Nc3c4c(c(Cl)c5c3CCC5)CCC4)n2)CC1` [Example 43]: the IC50 in test [3] (setting [6]) is under 30 nM. `CCCS(=O)(=O)N1CCCN(S(=O)(=O)NC(=O)c2coc(Nc3cc(Cl)ccc3C)n2)CC1` [Example 2-291]: in test [3] (setting [5]), inhibition was half-maximal at 73 nM (IC50). Take `Cc1ccc(C(F)(F)F)cc1Nc1nc(C(=O)NS(=O)(=O)N2CCOCCC2C)co1` (racemic) [Example 2-058]: the IC50 in test [3] amounted to 54 nM. In test [3] (setting [5]), `CCOCC1CCN(S(=O)(=O)NC(=O)c2coc(Nc3cc(C(F)(F)F)ccc3C)n2)CCO1` (stereo not shown) [Example 2-301] gave an IC50 of 11 nM.
